46 compounds from patent US20220340564A1, “ANTIBACTERIAL COMPOUNDS” (Janssen Sciences Ireland Unlimited Company, priority 2019, published 2022) can be followed below.

The structures appear in SMILES notation.

In this assay the test system is Mycobacterium tuberculosis strain EH4.0 expressing green-fluorescent protein (GFP). The assay can be described thus: microbe, parasite or virus in culture. The conditions noted are these: 168 h, read-out: pIC50 (converted). In kind it is cell-based.

With `CCc1nc2cc(C)c(Cl)cn2c1C(=O)NCc1ccc(N2CCN(S(=O)(=O)C(F)(F)F)C(OC)=N2)cc1` [Compound 108], the IC50 is 0.0204 µM. Then `Cc1cc(F)c2nc(C(F)(F)F)c(C(=O)NCc3cnc(N4CCN(S(=O)(=O)C(F)(F)F)C=N4)c(F)c3)n2c1` [Compound 184], with 0.0316 µM; and `O=C(NCc1ccc(N2CCN(S(=O)(=O)C(F)(F)F)C=N2)c(F)c1)c1c(C(F)(F)F)nc2ccc(Cl)cn12` [Compound 124], with 0.01 µM. Then `O=C(NCc1ccc(N2CCN(S(=O)(=O)C(F)(F)F)C=N2)c(F)c1)c1c(Br)nc2n1CCC2` [Compound 99], with 0.0324 µM; and `Cc1cc(F)c2ncc(C(=O)NCc3ccc(N4CCN(S(=O)(=O)C(F)(F)F)C=N4)c(F)c3)n2c1` [Compound 173], with 0.0501 µM.

Turning to `CCc1nc2ncc(COC)cn2c1C(=O)NCc1ccc(N2CCN(S(=O)(=O)C(F)(F)F)C=N2)cc1` [Compound 33], the IC50 is 0.0251 µM. For `O=C(NCc1ccc(N2CCN(S(=O)(=O)C(F)(F)F)C=N2)cc1)c1c(C(F)(F)F)nc2ccccn12` [Compound 127], the IC50 is 0.00955 µM.

For `CCc1nc2ccc(Cl)cn2c1C(=O)NCc1ccc(N2C=NN(C)CC2)cc1` [Compound 4], the IC50 was 0.0398 µM.

With `CCc1nc2cc(Cl)c(OC)cn2c1C(=O)NCc1ccc(N2CCN(S(=O)(=O)C(F)(F)F)C(OC)=N2)cc1` [Compound 45], the IC50 was 0.0398 µM. Then `CCc1nc2ccc(Cl)cn2c1C(=O)NCc1ccc(N2CCN(S(=O)(=O)CCOC)C=N2)cc1` [Compound 19], with 0.0398 µM.

Regarding `O=C(NCc1ccc(N2CCN(S(=O)(=O)C(F)(F)F)C=N2)c(F)c1)c1c(C(F)(F)F)nc2c(F)cccn12` [Compound 186], the IC50 was 0.00363 µM.

Consider `CCc1nc2c(Cl)cccn2c1C(=O)NCc1ccc(N2CCN(S(=O)(=O)C(F)(F)F)C=N2)c(F)c1` [Compound 129], for which the IC50 was 0.00891 µM. Then `CCc1nc2cc(OC)ccn2c1C(=O)NCc1ccc(N2CCN(S(=O)(=O)C(F)(F)F)C(OC)=N2)c(F)c1` [Compound 75], with 0.00631 µM; and `CCc1nc2ccc(Cl)cn2c1C(=O)NCc1ccc(N2CCN(S(=O)(=O)C(F)(F)F)C(OC)=N2)c(F)c1` [Compound 37], with 0.00398 µM; and `CCc1nc2ccc(Cl)cn2c1C(=O)NCc1ccc(N2CCNC(OC)=N2)cc1` [Compound 96], with 0.0363 µM.

In the case of `CCc1nc2c(Cl)c(OC)ccn2c1C(=O)NCc1ccc(N2CCN(S(=O)(=O)C(F)(F)F)C=N2)cc1` [Compound 39], the IC50 was 0.0794 µM. With `O=C(NCc1ccc(N2CCNC=N2)c(F)c1)c1c(C(F)(F)F)nc2ccccn12` [Compound 192], the IC50 is more than 0.5 µM.

For `COC1=NN(c2ccc(CNC(=O)c3c(C(F)F)nc4ccccn34)cc2)CCN1S(=O)(=O)C(F)(F)F` [Compound 149], the IC50 was 0.00355 µM. For `CCc1nc2n(c1C(=O)NCc1ccc(N3CCNC=N3)cc1)CCCC2` [Compound 57], the IC50 was not below 0.501 µM.

For the compound `CC1=NN(c2ccc(CNC(=O)c3c(C(F)(F)F)nc4ccccn34)cc2)CCN1S(=O)(=O)C(F)(F)F` [Compound 214], the IC50 was 0.0135 µM.

For `CCc1nc2ccc(Cl)cn2c1C(=O)NCc1ccc(N2CCNC(OC)=N2)c(F)c1` [Compound 110], the IC50 is 0.0186 µM. Then `CCc1nc2nc3c(cn2c1C(=O)NCc1ccc(N2CCN(S(=O)(=O)C(F)(F)F)C=N2)c(F)c1)COCC3` [Compound 90], with 0.0741 µM; and `CCc1nc2ccc(Cl)cn2c1C(=O)NCc1ccc(N2CCN(C(C)=O)C=N2)cc1` [Compound 18], with 0.0158 µM; and `CCc1nc2cc(F)c(Cl)cn2c1C(=O)NCc1ccc(N2CCN(S(=O)(=O)C(F)(F)F)C=N2)c(F)c1` [Compound 157], with 0.00138 µM. Then `CCc1nc2c(Cl)cc(C)cn2c1C(=O)NCc1ccc(N2CCN(S(=O)(=O)C(F)(F)F)C=N2)c(F)c1` [Compound 102], with 0.0295 µM; and `CCOc1cn2c(CC)c(C(=O)NCc3ccc(N4CCN(S(=O)(=O)C(F)(F)F)C=N4)c(F)c3)nc2nc1N1CCCC1` [Compound 81], with not below 0.501 µM. Turning to `CCc1nc2cc(Cl)c(OC)cn2c1C(=O)NCc1ccc(N2CCN(S(=O)(=O)C(F)(F)F)C=N2)cc1` [Compound 67], the IC50 was 0.2 µM. Then `CCc1nc2ccc(Cl)cn2c1C(=O)NCc1ccc(N2CCN(C)C=N2)cc1` [Compound 15], with 0.0251 µM; and `CCc1nc2ccc(Cl)cn2c1C(=O)NCc1ccc(N2CCN(S(=O)(=O)C(F)(F)F)C=N2)cc1OC` [Compound 22], with 0.398 µM. `Cc1ccc2nc(C(F)(F)F)c(C(=O)NCc3cnc(N4CCN(S(=O)(=O)C(F)(F)F)C=N4)c(F)c3)n2c1` [Compound 176]: the IC50 is 0.0158 µM. For `CCc1nc2c(Cl)cc(Cl)cn2c1C(=O)NCc1ccc(N2CCN(S(=O)(=O)C(F)(F)F)C=N2)c(F)c1` [Compound 87], the IC50 is 0.0891 µM. Then `CCc1nc2c(C)cc(OC)cn2c1C(=O)NCc1ccc(N2CCN(S(=O)(=O)C(F)(F)F)C=N2)c(F)c1` [Compound 105], with 0.0275 µM; and `CCc1nc2cccc(Cl)n2c1C(=O)NCc1ccc(N2CCN(S(=O)(=O)C(F)(F)F)C(OC)=N2)cc1` [Compound 70], with not below 0.501 µM. The value for `CCc1nc2nc3c(cn2c1C(=O)NCc1ccc(N2CCN(S(=O)(=O)C(F)(F)F)C(OC)=N2)c(F)c1)CCC3` [Compound 158] was 0.00138 µM; that for `CCc1nc2cc(OC)c(Cl)cn2c1C(=O)NCc1ccc(N2CCN(S(=O)(=O)C(F)(F)F)C=N2)cc1` [Compound 64] was 0.316 µM; that for `CCc1nc2nc(OC)c(F)cn2c1C(=O)NCc1ccc(N2CCN(S(=O)(=O)C(F)(F)F)C=N2)c(F)c1` [Compound 179] was 0.126 µM.

In the case of `CCc1nc2ncc(C(C)=O)cn2c1C(=O)NCc1ccc(N2CCN(S(=O)(=O)C(F)(F)F)C=N2)cc1` [Compound 62], the IC50 was not below 0.501 µM.

With `CCc1nc2c(C)cc(F)cn2c1C(=O)NCc1ccc(N2CCN(S(=O)(=O)C(F)(F)F)C=N2)c(F)c1` [Compound 89], the IC50 is 0.0832 µM. In the case of `CCc1nc2ccc(Cl)cn2c1C(=O)NCc1ccc(N2CCN(C=O)C=N2)cc1` [Compound 38], the IC50 was 0.0631 µM. Then `CCc1nc2cc(C)c(C)cn2c1C(=O)NCc1cnc(N2CCN(S(=O)(=O)C(F)(F)F)C=N2)c(F)c1` [Compound 185], with 0.0468 µM. Consider `CCc1nc2nc(NC)c(Cl)cn2c1C(=O)NCc1ccc(N2CCN(S(=O)(=O)C(F)(F)F)C=N2)c(F)c1` [Compound 83], for which the IC50 was 0.372 µM.

As to `CCc1nc2ccc(Cl)cn2c1C(=O)NCc1ccc(N2CCN(S(=O)(=O)C(F)(F)F)C=N2)nc1` [Compound 171], the IC50 was 0.0251 µM. As for `CCc1nc2c(F)cc(Cl)cn2c1C(=O)NCc1ccc(N2CCN(S(=O)(=O)C(F)(F)F)C(OC)=N2)c(F)c1` [Compound 210], the IC50 was 0.00302 µM. In the case of `CCc1nc2ccc(Cl)cn2c1C(=O)NCc1ccc(N2CCN(C)C(C)=N2)cc1` [Compound 59], the IC50 is 0.2 µM.

Regarding `CCc1nc2cc(C)c(Cl)cn2c1C(=O)NCc1ccc(N2CCN(S(=O)(=O)C(F)(F)F)C=N2)cc1` [Compound 107], the IC50 was 0.024 µM. The value for `CCc1nc2n(c1C(=O)NCc1ccc(N3CCN(S(=O)(=O)CCOC)C=N3)cc1)CCCC2` [Compound 58] was 0.251 µM.
